Here are results for 15 compounds from patent publication US9163007B2, “5-substituted indazoles as kinase inhibitors” (AbbVie Inc., priority 2007, dated 2015).

The target of one assay is Cdc7/Dbf4 (Homo sapiens (Human), UniProt O00311). In words: Cdc7 Inhibition Assay.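 Also: reaction mixtures incubated 30 min on streptavidin-coated plates, then quantified by scintillation counting, with inhibition curves fitted by non-linear regression.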 The format is biochemical. The settings on record: 6 data point; read-out: Ki (μM) 6 data point.
Chain of Cdc7/Dbf4 (O00311 whole entry): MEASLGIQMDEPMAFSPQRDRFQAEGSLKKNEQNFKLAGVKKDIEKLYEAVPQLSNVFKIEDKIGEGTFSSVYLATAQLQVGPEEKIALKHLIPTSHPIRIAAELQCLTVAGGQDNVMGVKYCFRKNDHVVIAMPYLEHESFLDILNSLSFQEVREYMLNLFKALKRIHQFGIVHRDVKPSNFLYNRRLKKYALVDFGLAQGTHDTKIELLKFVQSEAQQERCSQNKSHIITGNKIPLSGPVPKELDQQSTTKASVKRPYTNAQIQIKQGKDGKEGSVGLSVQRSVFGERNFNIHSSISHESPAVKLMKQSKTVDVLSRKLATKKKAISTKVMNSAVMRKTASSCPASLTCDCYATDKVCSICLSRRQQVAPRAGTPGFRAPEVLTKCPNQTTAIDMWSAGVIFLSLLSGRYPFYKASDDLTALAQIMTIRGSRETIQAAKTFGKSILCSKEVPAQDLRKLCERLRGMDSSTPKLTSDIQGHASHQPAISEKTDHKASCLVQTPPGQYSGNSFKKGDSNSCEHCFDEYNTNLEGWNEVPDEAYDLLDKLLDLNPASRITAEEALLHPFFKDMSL
Chain of Cdc7/Dbf4 (Q9UBU7 whole entry partner): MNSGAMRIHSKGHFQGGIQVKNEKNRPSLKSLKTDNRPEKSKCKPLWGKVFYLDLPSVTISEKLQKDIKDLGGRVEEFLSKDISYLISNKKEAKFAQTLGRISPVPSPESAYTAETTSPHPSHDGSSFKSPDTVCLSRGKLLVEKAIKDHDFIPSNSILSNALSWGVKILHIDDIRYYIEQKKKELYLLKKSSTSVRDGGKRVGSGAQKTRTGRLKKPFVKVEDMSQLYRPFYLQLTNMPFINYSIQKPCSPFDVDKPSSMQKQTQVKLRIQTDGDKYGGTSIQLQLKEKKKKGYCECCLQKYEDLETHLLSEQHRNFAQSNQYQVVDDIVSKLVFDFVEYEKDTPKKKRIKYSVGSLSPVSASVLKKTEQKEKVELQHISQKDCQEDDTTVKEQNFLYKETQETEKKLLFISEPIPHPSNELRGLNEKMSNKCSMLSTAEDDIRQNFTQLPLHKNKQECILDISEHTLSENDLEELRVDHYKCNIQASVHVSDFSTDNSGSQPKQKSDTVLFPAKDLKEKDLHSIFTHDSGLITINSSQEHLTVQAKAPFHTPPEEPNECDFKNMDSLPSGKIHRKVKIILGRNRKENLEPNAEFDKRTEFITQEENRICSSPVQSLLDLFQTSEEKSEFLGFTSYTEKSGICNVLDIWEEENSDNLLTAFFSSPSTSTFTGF
Protocol: The reactions were incubated for 30 minutes on streptavidin-coated plates, washed, and quantified using a TopCount scintillation plate reader (Packard). IC50 values are determined via non-linear regression fitting of the data.
For `O=C(c1cccc(Cl)c1)c1c(-c2ccc3[nH]ncc3c2)nnn1CC1CCOCC1` [Example 146, (3-chlorophenyl)[4-(1H-indazol-5-yl)-1-(tetrahydro-2H-pyran-4-ylmethyl)-1H-1,2,3-triazol-5-yl]methanone], the Ki is 0.229 µM.

Regarding `O=C(c1c(-c2ccc3[nH]ncc3c2)nnn1Cc1ccccc1)N1CCCCC1` [Example 169, 5-[1-benzyl-5-(piperidin-1-ylcarbonyl)-1H-1,2,3-triazol-4-yl]-1H-indazole], the inhibition constant (Ki) was above 1.23 µM. With `Cc1ccccc1-c1c(-c2ccc3[nH]nc(N)c3c2)nnn1CC1CCOCC1` [Example 171, 5-[5-(2-methylphenyl)-1-(tetrahydro-2H-pyran-4-ylmethyl)-1H-1,2,3-triazol-4-yl]-1H-indazol-3-amine], the Ki stood at 0.03 µM. Turning to `O=C(c1c(-c2ccc3[nH]ncc3c2)nnn1Cc1ccccc1)N1CCOCC1` [Example 172, 5-[1-benzyl-5-(morpholin-4-ylcarbonyl)-1H-1,2,3-triazol-4-yl]-1H-indazole], the Ki is above 1.23 µM.

Consider `NC1CCN(C(=O)c2c(-c3ccc4[nH]ncc4c3)nnn2Cc2ccccc2)CC1` [Example 197, 1-{[1-benzyl-4-(1H-indazol-5-yl)-1H-1,2,3-triazol-5-yl]carbonyl}piperidin-4-amine], for which the Ki amounted to 1.23 µM. Consider `c1ccc(CNc2n[nH]c3ccc(-c4nnn(Cc5ccccc5)c4C4CC4)cc23)cc1` [Example 207, N-benzyl-5-(1-benzyl-5-cyclopropyl-1H-1,2,3-triazol-4-yl)-1H-indazol-3-amine], for which the inhibition constant Ki stood at 0.046 µM. Still for that read-out and setting: for `O=C(Nc1ccccc1)c1c(-c2ccc3[nH]ncc3c2)nnn1Cc1ccccc1` [Example 243, 1-benzyl-4-(1H-indazol-5-yl)-N-phenyl-1H-1,2,3-triazole-5-carboxamide] the value was above 1.23 µM; for `CC1CN(C(=O)c2c(-c3ccc4[nH]ncc4c3)nnn2Cc2ccccc2)CC(C)O1` (stereo not drawn) [Example 254, 5-{1-benzyl-5-[(2,6-dimethylmorpholin-4-yl)carbonyl]-1H-1,2,3-triazol-4-yl}-1H-indazole], above 1.23 µM; for `CC(=O)N1CCN(C(=O)c2c(-c3ccc4[nH]ncc4c3)nnn2Cc2ccccc2)CC1` [Example 255, 5-{5-[(4-acetylpiperazin-1-yl)carbonyl]-1-benzyl-1H-1,2,3-triazol-4-yl}-1H-indazole], above 1.23 µM.

Staying with this assay, now noted: 11 data point; read-out: Ki (μM) 11 data point.
Consider `Fc1ccc(Cn2cc(-c3ccc4[nH]ncc4c3)nn2)cc1` [Example 10, 5-[1-(4-fluorobenzyl)-1H-1,2,3-triazol-4-yl]-1H-indazole], for which the Ki stood at 0.0563 µM. Consider `Nc1n[nH]c2ccc(-c3nnn(Cc4ccc(C(F)(F)F)cc4)c3-c3ccc(F)cc3)cc12` [Example 150, 5-{5-(4-fluorophenyl)-1-[4-(trifluoromethyl)benzyl]-1H-1,2,3-triazol-4-yl}-1H-indazol-3-amine], for which the Ki is 0.43 µM.

Consider `O=S(=O)(Nc1n[nH]c2ccc(-c3nnn(Cc4ccccc4)c3-c3ccccc3)cc12)c1ccccc1` [Example 199, N-[5-(1-benzyl-5-phenyl-1H-1,2,3-triazol-4-yl)-1H-indazol-3-yl]benzenesulfonamide], for which the Ki stood at 0.34 µM. Take `O=S(=O)(Nc1n[nH]c2ccc(-c3nnn(Cc4ccccc4)c3C3CC3)cc12)c1ccccc1` [Example 217, N-[5-(1-benzyl-5-cyclopropyl-1H-1,2,3-triazol-4-yl)-1H-indazol-3-yl]benzenesulfonamide]: the inhibition constant (Ki) was determined as 1 µM. For the compound `O=S(=O)(Nc1n[nH]c2ccc(-c3nnn(Cc4ccccc4)c3C3CC3)cc12)c1ccccc1Cl` [Example 218, N-[5-(1-benzyl-5-cyclopropyl-1H-1,2,3-triazol-4-yl)-1H-indazol-3-yl]-2-chlorobenzenesulfonamide], the Ki is above 1.23 µM. Still for that read-out and setting: for `O=S(=O)(Nc1n[nH]c2ccc(-c3nnn(Cc4ccccc4)c3C3CC3)cc12)c1ccc(Cl)cc1` [Example 220, N-[5-(1-benzyl-5-cyclopropyl-1H-1,2,3-triazol-4-yl)-1H-indazol-3-yl]-4-chlorobenzenesulfonamide] the value was 0.98 µM.
